Test results published in US20100037351A1, “Alteration of Phospholipase De (PLDe) or Phospholipase Da3 (PLD a3) Expression in Plants” (DONALD DANFORTH PLANT SCIENCE CENTER, priority 2008, published 2010).

Legend:
Arabidopsis seedlings = details: for effect on number and length of lateral roots: MS with 6 mM N containing 0.15% butanol, OE, WT and KO seedlings, measured 6 days after transfer
Protocol: (A) Four-day-old seedlings were transferred to Murashige and Skoog (MS) containing 6 mM N for 12 days. […] Root length and number were measured 6 days after transfer. Values are means±SD (n=30).
To test N response on plates, surface-sterilized seeds were germinated in MS (1×) agar plates supplement with 3% sucrose for 4 days and then were transferred to modified MS agar plates containing 0.1, 0.6, 2, 6, 60 mM N, NO3^−:NH4^−=2:1). […] Seedlings were grown on plates in a vertical orientation in a growth chamber under the conditions of 16-h light/8-h dark, 23/21° C., cool fluorescent white light (200 mmol m^−2 s^−1). Alternatively, seeds were also directly germinated in agar plates with the same conditions as described above.

S6K = S6K binding to lipids immobilized on a nitrocellulose filter; set-up: species or system Arabidopsis; details: 10 mg lipid spotted; leaf proteins 1.2 mg/ml; anti-human p70 S6K antibody
Protocol: FIG. 5 depicts S6K levels under different N levels. (A) and (B) S6K protein levels detected by immunoblotting with anti-p70 S6K and anti-phospho-p70 S6K (Thr389) antibodies, respectively. Four-day-old seedlings were transferred to MS plates with the indicated N levels for 10 days. The same amount of proteins ([…]/lane) was separated by 10% SDS-PAGE and transferred to a nitrocellulose membrane. (C) S6K binding to PA immobilized on filter. Lipid (10 mg) was spotted on nitrocellulose filter, and incubated with leaf proteins (1.2 mg/ml), followed by blotting with anti-human p70 S6K antibody. (D) S6K binding to liposomes composed of PA (PA:PC=1:2), PC, or PI only (650 nmol of total lipids). (E) Total S6K, but not phosphorylated S6K binding to PA:PC liposomes. Proteins were extracted from WT and PLDε-altered seedlings. Bound proteins were separated by SDS-PAGE and detected by blotting with anti-human p70 S6K antibody or anti-human p389 p70 S6K antibody.
PLDε: PA-Protein Binding by Blotting and Liposomal Assays. S6K binding to lipids immobilized on a nitrocellulose filter was performed as described (Zhang, W., Qin, C., Zhao, J. & Wang, X. (2004) Proc. Natl. Acad. Sci. USA. 101, 9508-9513; Stevenson, J. M., Perera, I. Y. & Boss, W. F. (1998) J Biol Chem. 273, 22761-22767) with minor modifications. […] Protein binding to liposome was detected by immunoblotting as described above.

Compound | effect on biomass accumulation (Arabidopsis seedlings; 1-butanol treatment, data not shown) | effect on number and length of lateral roots (Arabidopsis seedlings) | S6K binding to lipid immobilized on filter (S6K)
CCCCO [1-Butanol, 1-butanol] | inhibited | inhibited | –
CCC(C)O (stereo not shown) [2-butanol] | – | no growth inhibitory effect | –
phosphatidic acid [PA] | – | – | bound
